Our source for the IC50 values is US9844542B2, “Substituted imidazopyridine and triazolopyridine compounds as negative allosteric modulators of mGluR5” (Vanderbilt University, priority 2013, dated 2017).

Where “and” joins values, the source holds several entries; their conditions need not be identical. Identical values can stand only once.

T1 sequence (P31424 21-1171 isoform P31424-2 limits assumed): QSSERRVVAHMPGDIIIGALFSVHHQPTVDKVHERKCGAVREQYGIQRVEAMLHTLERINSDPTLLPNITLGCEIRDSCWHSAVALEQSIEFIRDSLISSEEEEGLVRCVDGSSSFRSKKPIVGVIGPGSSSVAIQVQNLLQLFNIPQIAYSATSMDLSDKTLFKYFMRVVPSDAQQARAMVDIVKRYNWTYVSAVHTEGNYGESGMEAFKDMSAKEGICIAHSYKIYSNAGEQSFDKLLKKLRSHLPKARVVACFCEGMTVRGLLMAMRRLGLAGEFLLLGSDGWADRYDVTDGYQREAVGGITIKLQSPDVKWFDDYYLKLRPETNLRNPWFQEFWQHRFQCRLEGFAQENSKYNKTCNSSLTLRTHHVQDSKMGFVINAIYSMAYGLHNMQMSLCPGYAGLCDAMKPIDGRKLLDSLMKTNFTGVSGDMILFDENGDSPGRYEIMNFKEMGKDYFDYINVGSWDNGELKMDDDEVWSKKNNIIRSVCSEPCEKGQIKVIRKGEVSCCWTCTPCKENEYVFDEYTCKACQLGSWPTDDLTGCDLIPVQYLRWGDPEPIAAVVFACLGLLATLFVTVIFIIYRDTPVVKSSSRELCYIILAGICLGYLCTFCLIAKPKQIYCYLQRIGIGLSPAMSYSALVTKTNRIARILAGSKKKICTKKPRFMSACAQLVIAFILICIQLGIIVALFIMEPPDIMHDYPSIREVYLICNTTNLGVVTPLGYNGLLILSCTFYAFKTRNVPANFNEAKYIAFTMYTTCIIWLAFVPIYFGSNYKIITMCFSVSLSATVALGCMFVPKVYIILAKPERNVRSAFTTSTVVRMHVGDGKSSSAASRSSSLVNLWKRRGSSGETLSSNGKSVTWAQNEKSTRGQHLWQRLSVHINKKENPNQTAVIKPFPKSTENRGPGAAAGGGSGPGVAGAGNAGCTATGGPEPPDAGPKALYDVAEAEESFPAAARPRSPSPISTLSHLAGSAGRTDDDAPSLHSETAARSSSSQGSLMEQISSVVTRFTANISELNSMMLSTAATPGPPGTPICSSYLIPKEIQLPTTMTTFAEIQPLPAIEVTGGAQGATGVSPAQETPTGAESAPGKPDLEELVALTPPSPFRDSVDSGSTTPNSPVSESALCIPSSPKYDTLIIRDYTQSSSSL

The assay concerns the target T1, rat mGluR5 (Rattus norvegicus, UniProt P31424).
T1 construct: expressed in transfected cells
The assay can be described thus: mGluR5 calcium mobilization assay (FDSS, Fluo-4) in HEK 293A cells stably expressing rat mGluR5. It is filed as cell-based. As to conditions: HEK cells transfected with rat mGluR5; antagonism of glutamate EC80 response; ± = standard error of at least three experiments. Here is the method: Human embryonic kidney (HEK) cells transfected with rat or human mGluR5 were plated in clear bottom assay plates for assay in a Functional Drug Screening System (FDSS). The cells were loaded with a Ca^2+-sensitive fluorescent dye (e.g., Fluo-4), and the plates were washed and placed in the FDSS instrument. Test compound was applied to cells 3 seconds after baseline readings were taken. Cells were incubated with the test compounds for 140 seconds and then stimulated with an EC20 concentration of an mGluR5 agonist (e.g., glutamate, 3,5-dihydroxyphenylglycine, or quisqualate); 60-80 seconds later an EC80 concentration of agonist was added and readings taken for an additional 40 seconds. Data were collected at 1 Hz. […] Concentration response curves were generated using a four parameter logistical equation.
The above described assay was operated in two modes. In the first mode (utilizing a triple add protocol), a range of concentrations of the present compounds were added to cells, followed by two single fixed concentrations of agonist (EC20 followed by EC80). If a compound acted as a potentiator, an EC50 value for potentiation of the EC20 response and a maximum extent of potentiation by the compound at this concentration of agonist was determined by non-linear curve fitting. If a compound acted as an antagonist, an IC50 value for antagonism of the EC80 response and a maximum extent of antagonism by the compound at this concentration of agonist was determined by non-linear curve fitting. In the second mode (utilizing a double add protocol), several fixed concentrations of the present compounds were added to various wells on a plate, followed by a range of concentrations of agonist for each concentration of present compound; the EC50 values for the agonist at each concentration of compound were determined by nonlinear curve fitting. A decrease in the EC50 value of the agonist with increasing concentrations of the present compounds (a leftward shift of the agonist concentration-response curve) is an indication of the degree of mGluR5 positive allosteric modulation at a given concentration of the present compound. An increase in the EC50 value of the agonist with increasing concentrations of the present compounds (a rightward shift of the agonist concentration response curve) is an indication of the degree of mGluR5 antagonism at a given concentration of the present compound. The second mode also indicates whether the present compounds also affect the maximum response to mGluR5 to agonists.
The mGluR5 activity was determined using the calcium mobilization assays in human embryonic kidney cells as described herein below, wherein the human embryonic kidney cells were transfected with rat mGluR5. The mGluR5 activity data for some compounds are shown as the average of at least three experiments with the standard error in these cases. If no error is indicated for the mGluR5 activity, the values given represent the results from a single experiment or the average of two experiments. The compounds in Table 1 were synthesized with methods identical or analogous to those shown herein. The requisite starting materials were commercially available, described in the literature, or readily synthesized by one skilled in the art of organic synthesis.
GluMax is the amplitude of response in the presence of 30 μM test compound as a percentage of maximal response (100 μM glutamate). Partial antagonists display concentration-response curves (CRCs) that plateau above 10%.
The preparation of rat mGluR5 stable cell-lines is as previously described (e.g. see Romano et al. J Biol. Chem. 1996 Nov. 8; 271(45):28612-6).
Background: A change in cytosolic calcium serves as a functional read-out for many receptors and channels.
Regarding `Cc1ccc(NC(=O)c2cc(Oc3cncc(C)c3)cn3ncnc23)nc1`, the IC50 turned out to be 267 nM.
Under `CCc1cccc(NC(=O)c2cc(Oc3cncnc3)cn3cnnc23)n1` stands 2060 nM; under `CCc1cccc(NC(=O)c2cc(Oc3cncc(F)c3)cn3cnnc23)n1`, 168 nM.
The value for `O=C(Nc1ccccn1)c1cc(Oc2cncc(F)c2)cn2cnnc12` was 33 nM; that for `Cc1ccc(NC(=O)c2cc(Oc3cncc(Cl)c3)cn3cnnc23)nc1` was 1050 nM; that for `CCc1cccc(NC(=O)c2cc(Oc3cccnc3)cn3ncnc23)n1` was 114 nM.
Under `CCc1cccc(NC(=O)c2cc(Oc3cncc(F)c3)cn3c(C)nnc23)n1` stands 1180 nM.
`Cc1nc(NC(=O)c2cc(Oc3cncc(F)c3)cn3cnnc23)ccc1F`: the half-inhibitory concentration (IC50) came out at 164 nM.
Under `Cc1csc(NC(=O)c2cc(Oc3cc(F)cnc3F)cn3ncnc23)n1` stands 110 nM.
Under `CCc1cccc(NC(=O)c2cc(Oc3cnc(C)nc3)cn3cnnc23)n1` stands more than 10000 nM; under `Cc1nc2c(C(=O)Nc3ccc(F)c(C)n3)cc(Oc3cncc(F)c3)cn2n1`, 846 nM; under `N#Cc1cncc(Oc2cc(C(=O)Nc3ccccn3)c3ncnn3c2)c1`, 105 nM.
Under `Cc1cccc(NC(=O)c2cc(Oc3cncc(F)c3)cn3cnnc23)n1` stands 73 nM; under `COc1cccc(NC(=O)c2cc(Oc3cncnc3)cn3cnnc23)n1`, 162 nM; under `O=C(Nc1ccccn1)c1cc(Oc2cccnc2)cn2ncnc12`, 28 nM.
Consider `O=C(Nc1ccc(F)cn1)c1cc(Oc2cncc(F)c2)cn2ccnc12`, for which the IC50 came to 12 nM.
The value for `Cc1nc(NC(=O)c2cc(Oc3cncc(Cl)c3)cn3ncnc23)ccc1F` was 380 nM; that for `Cc1nnc2c(C(=O)Nc3ccc(F)cn3)cc(Oc3cncc(F)c3)cn12` was 360 nM.
Under `N#Cc1cncc(Oc2cc(C(=O)Nc3ccc(F)cn3)c3nccn3c2)c1` stands 51 nM; under `O=C(Nc1ccccn1)c1cc(Oc2cc(F)cnc2F)cn2ncnc12`, 86 nM; under `Cc1nc2c(C(=O)Nc3cccc(F)n3)cc(Oc3cncc(F)c3)cn2n1`, 410 nM.
Turning to `COc1cccc(NC(=O)c2cc(Oc3cnc(C)nc3)cn3ccnc23)n1`, the IC50 amounted to 2840 nM.
The value for `O=C(Nc1ccc(F)cn1)c1cc(Oc2cncc(F)c2)cn2ncnc12` [drawing 179] was 23 nM and 25 nM; that for `O=C(Nc1ccccn1)c1cc(Oc2cncc(Cl)c2)cn2ccnc12` was 33 nM.
Regarding `Cc1nc(NC(=O)c2cc(Oc3cccnc3)cn3ncnc23)ccc1F`, the IC50 worked out at 119 nM.
For the compound `COc1cccc(NC(=O)c2cc(Oc3cncc(Cl)c3)cn3cnnc23)n1`, the IC50 was 1360 nM.
With `O=C(Nc1cccc(F)n1)c1cc(Oc2cncc(Cl)c2)cn2cnnc12`, the half-inhibitory concentration (IC50) came out at 414 nM.
Under `O=C(Nc1ccccn1)c1cc(Oc2cncc(F)c2)cn2ncnc12` stands 25 nM; under `Cc1ccc(NC(=O)c2cc(Oc3cncc(F)c3)cn3ccnc23)nc1`, 48 nM.
The value for `[2H]c1nc(NC(=O)c2cc(Oc3cncc(Cl)c3)cn3cnnc23)c([2H])c([2H])c1[2H]` was 217 nM.
Under `Cc1cccc(NC(=O)c2cc(Oc3cncc(F)c3)cn3nc(C)nc23)n1` stands 199 nM.
`COc1cncc(Oc2cc(C(=O)Nc3nc(C)cs3)c3ncnn3c2)c1`: the IC50 is 139 nM.
As for `Cc1cccc(NC(=O)c2cc(Oc3cncc(Cl)c3)cn3ncnc23)n1`, the IC50 was 130 nM.
The value for `Cc1cccc(NC(=O)c2cc(Oc3cncnc3)cn3cnnc23)n1` was 674 nM; that for `N#Cc1cncc(Oc2cc(C(=O)Nc3ccccn3)c3nncn3c2)c1` was 674 nM.
Under `COc1ccc(NC(=O)c2cc(Oc3cncc(OC)c3)cn3ccnc23)nc1` stands 85 nM; under `CCc1cccc(NC(=O)c2cc(Oc3cncc(OC)c3)cn3ccnc23)n1`, 377 nM; under `CCc1cccc(NC(=O)c2cc(Oc3cncc(OC)c3)cn3cnnc23)n1` [drawing 287], more than 10000 nM.
Under `Cc1cccc(NC(=O)c2cc(Oc3cncc(F)c3)cn3ncnc23)n1` stands 58 nM; under `Cc1ncc(Oc2cc(C(=O)Nc3ccc(F)c(C)n3)c3nncn3c2)cn1`, more than 10000 nM; under `Cc1nc(NC(=O)c2cc(Oc3cncc(F)c3)cn3ncnc23)ccc1F`, 92 nM.
Turning to `Cc1csc(NC(=O)c2cc(Oc3cncc(Cl)c3)cn3ncnc23)n1`, the IC50 is 62 nM.
The value for `COc1cncc(Oc2cc(C(=O)Nc3nc(C)cs3)c3nccn3c2)c1` was 66 nM; that for `Cc1cncc(Oc2cc(C(=O)Nc3cccc(C)n3)c3ncnn3c2)c1` was 160 nM.
Take `COc1cncc(Oc2cc(C(=O)Nc3cccc(C)n3)c3nccn3c2)c1`: the concentration for half-maximal inhibition (IC50) was found to be 80 nM.
With `COc1cccc(NC(=O)c2cc(Oc3cccnc3)cn3ncnc23)n1`, the IC50 was determined as 40 nM.
Under `COc1cncc(Oc2cc(C(=O)Nc3ccccn3)c3nncn3c2)c1` stands 897 nM; under `Cc1csc(NC(=O)c2cc(Oc3cncc(F)c3)cn3c(C)nnc23)n1`, 426 nM.
With `Cc1cncc(Oc2cc(C(=O)Nc3cccc(F)n3)c3ncnn3c2)c1`, the IC50 stood at 89 nM.
Under `[2H]c1nc(NC(=O)c2cc(Oc3cncc(Cl)c3)cn3ncnc23)c([2H])c([2H])c1[2H]` stands 43 nM; under `CCc1cccc(NC(=O)c2cc(Oc3cncc(F)c3)cn3nc(C)nc23)n1`, 623 nM.
Under `Cc1cncc(Oc2cc(C(=O)Nc3ccccn3)c3ncnn3c2)c1` stands 57 nM; under `COc1cccc(NC(=O)c2cc(Oc3cncc(Cl)c3)cn3ncnc23)n1`, 236 nM; under `Cc1csc(NC(=O)c2cc(Oc3cncc(C#N)c3)cn3cnnc23)n1`, 1210 nM.
The value for `O=C(Nc1ccccn1)c1cc(Oc2cncc(Cl)c2)cn2cnnc12` was 176 nM; that for `[2H]c1nc(NC(=O)c2cc(Oc3cncc(C)c3)cn3ncnc23)c([2H])c([2H])c1[2H]` was 55 nM; that for `COc1cccc(NC(=O)c2cc(Oc3cncc(F)c3)cn3ccnc23)n1` was 94 nM.
Regarding `O=C(Nc1cc(F)ccn1)c1cc(Oc2cncc(F)c2)cn2cnnc12`, the concentration for half-maximal inhibition (IC50) amounted to 1170 nM.
`O=C(Nc1cccc(F)n1)c1cc(Oc2cncc(Cl)c2)cn2ncnc12`: the IC50 was 62 nM.
The value for `[2H]c1nc(NC(=O)c2cc(Oc3cncc(OC)c3)cn3ncnc23)c([2H])c([2H])c1[2H]` was 104 nM; that for `Cc1csc(NC(=O)c2cc(Oc3cncc(C#N)c3)cn3ncnc23)n1` was 193 nM; that for `O=C(Nc1cc(F)ccn1)c1cc(Oc2cncc(F)c2)cn2ncnc12` was 723 nM.
Under `COc1ccc(NC(=O)c2cc(Oc3cncc(F)c3)cn3ccnc23)nc1` stands 39 nM; under `COc1ccc(NC(=O)c2cc(Oc3cncc(OC)c3)cn3cnnc23)nc1`, 3970 nM.
As for `Cc1nc(NC(=O)c2cc(Oc3cncnc3)cn3ncnc23)sc1F`, the IC50 was 150 nM.
Consider `CCc1cccc(NC(=O)c2cc(Oc3cncc(Cl)c3)cn3cnnc23)n1`, for which the IC50 came to 1340 nM.
For `Cc1ccc(NC(=O)c2cc(Oc3cncc(F)c3)cn3cnnc23)nc1`, the IC50 is 77 nM.
Under `O=C(Nc1ccc(F)cn1)c1cc(Oc2cncc(OC(F)F)c2)cn2ncnc12` stands 127 nM.
The value for `Cc1ccc(NC(=O)c2cc(Oc3cncc(F)c3)cn3ncnc23)nc1` was 53 nM; that for `Cc1cccc(NC(=O)c2cc(Oc3cncc(Cl)c3)cn3cnnc23)n1` was 695 nM; that for `Cc1ncc(Oc2cc(C(=O)Nc3ccc(F)cn3)c3nccn3c2)cn1` was 3710 nM.
For `O=C(Nc1ccc(F)cn1)c1cc(Oc2cncc(F)c2)cn2cnnc12` [drawing 160], the IC50 was determined as 28 ± 7 nM.
Take `COc1cncc(Oc2cc(C(=O)Nc3cccc(C)n3)c3nncn3c2)c1`: the IC50 was determined as 2150 nM.
Under `Cc1nnc2c(C(=O)Nc3cccc(F)n3)cc(Oc3cncc(F)c3)cn12` stands 1070 nM.
The value for `COc1cccc(NC(=O)c2cc(Oc3cncc(F)c3)cn3cnnc23)n1` was 146 nM.

A word on the IC50: it is the concentration that gives 50% inhibition.
